How the values were obtained:
[1] = test system: IspGESS artificial genetic circuit (TbuT regulator); experiment: Quantitative fluorescence response of pIspGESS-containing recombinant E. coli to added compounds (FACS); assay type: cell-based, E. coli DH5α; conditions: for response of IspGESS fluorescence to the compound: 0-2000 μM, FACS; for concentration from which fluorescence started to be sensed: pIspGESS in E. coli DH5α, M9 medium, 30° C. 18 hours, FACS FL1-H
Protocol: In order to examine the isoprene, toluene, benzene and phenol compounds sensing function of pIspGESS-containing recombinant E. coli, pIspGESS of Example 1 was introduced into a single colony of E. coli DH5α (NEB, USA) by heat shock, and then the E. coli colony was inoculated into an LB liquid medium (1% (w/v) trypton, 0.5% (w/v) yeast extract, and 1% (w/v) sodium chloride) supplemented with 50 μg/Ml of ampicillin and was cultured with shaking at 37° C. for 14 hours. The culture was inoculated into M9 minimal medium (containing 50 μg/Ml ampicillin, 4% glucose and 1% thiamine) at a concentration of 1% and then cultured with shaking at 37° C. for 6 hours. Various concentrations (0-2000 μM) of isoprene was added to each of the test tubes containing the culture broth, after then the culture was cultured with shaking at 30° C. for 18 hours, thereby inducing the expression of fluorescence in the culture. The intensity of intracellular fluorescence induced by each concentration of toluene was analyzed by a FACS Calibur system (Becton Dickinson, USA). As a detector, a FSC, SSC, FL1-H (excitation=488 nm, emission=530/30 nm) detector was set, and data obtained by observing 10,000 samples were analyzed using CellQuest Pro (Becton Dickinson, USA).

[2] = test system: IspGESS artificial genetic circuit; experiment: Detection of isoprene synthase activity with IspGESS, pCDF vector (FACS); assay type: cell-based; conditions: E. coli BL21(DE3), FACS 10,000 cells
Protocol: First, the IspSm1 gene was inserted into the NcoI-AvrII restriction enzyme site of a pCDF-duet vector (Novagen, USA) to prepare pCDF-IspSm1, which was then introduced into an E. coli BL21 (DE3) strain (NEB, USA) containing pIspGESS of […] of ampicillin and 10 μg/Ml of streptomycin were added to LB liquid medium containing 0.1 mM of IPTG (isopropyl-thio-β-Dgalactopyranoside), and E. coli cells were cultured with shaking in the LB liquid medium at 37° C. for 16 hours. Then, the cultured cells were transferred into M9 liquid medium containing 0.1 mM IPTG and were cultured at 28° C. and 200 rpm for 20 hours. […] The intensity of fluorescence in the cultured cells was analyzed using a FACS Calibur system (Becton Dickinson, USA). As a detector, a FSC, SSC, FL1-H (excitation=488 nm, emission=530/30 nm) detector was set, and data obtained by observing 10,000 samples were analyzed.
As a result, 5×10^5 of mutant library was constructed. […] With the criterion for screening, cells showing fluorescence intensity which is at least 50% higher than that of IspSm1 were sorted using a FACScalibur system (Becton Dickinson, USA). Then, 6 clones having higher fluorescence intensity than IspSm1 were isolated.
The activities of the isolated clones were analyzed by a FACS. As detectors, FSC, SSC, FL1-H (excitation=488 nm, emission=530/30 nm) detectors were set, and 10,000 cells were analyzed.

[3] = test system: IspGESS artificial genetic circuit; experiment: Detection of isoprene synthase activity with IspGESS, pPROLar vector (FACS, t-test); assay type: cell-based; conditions: E. coli DH5α
Protocol: First, IspSm1 and IspSm2 genes were amplified using PCR with primers (SEQ ID NOS: 13, 14), and inserted into the NdeI-XbaI restriction enzyme site of a pPROLar vector for pPROLar-ispSm1 and pPROLar-ispSm2 (SEQ ID NOS: 15, 16). Then these two vectors were transformed into an E. coli DH5α strain containing IspGESS of Example 1. 50 μg/Ml of ampicillin and 10 μg/Ml of kanamycin were added to LB liquid medium, and E. coli cells were cultured with shaking in the LB liquid medium at 37° C. for 16 hours. 4 Ml of the culture medium was placed in a 10 Ml vial and the cultured bacterial strain was then inoculated at a concentration of 1%. Then, the vial was sealed with a septum and the cells were cultured at 28° C. and 200 rpm for 24 hours. The intensity of fluorescence in the cultured cells was analyzed using a FACScalibur system (Becton Dickinson, USA). As detectors, FSC, SSC, and FL1-H (excitation=488 nm, emission=530/30 nm) detectors were set, and 10,000 samples were analyzed.
To verify the fluorescence differences of IspSm1, IspSm2 and no IspS induction control, the flow cytometry data was analyzed by t-test. The t-test compared the mean values of the fluorescence signals between the negative control (IspGESS without IspSm1 (IspSm2) induction) and the case that includes IspSm1 (IspSm2) inducer. […] Note that there are three replicates of each case (FIG. 8).

Molecule | response of IspGESS fluorescence to the compound [1] | concentration from which fluorescence started to be sensed [1] [µM] | fluorescence intensity / isoprene synthesis activity compared with IspSm1 [2] | fluorescent mean intensity compared with IspGESS with IspSm1 [3] | intensity of fluorescence compared with cells containing neither IspSm1 nor IspSm2 [3]
C=CC(=C)C [isoprene] | increased as the isoprene concentration increased | 50 |  |  | 
Cc1ccccc1 [toluene] | responded | 0.5 |  |  | 
c1ccccc1 [benzene] | responded | 1 |  |  | 
Oc1ccccc1 [phenol] | responded | 50 |  |  | 
IspSm2: mutant IspSm1 containing L35R (SEQ ID NO: 8), screened from random mutant library (protein, IspSm2) MACSVSTENVSFTETETETRRSANYEPNSWDYDYRLSSDTDESIEVYKDKAKKLEAEVRREINNEKAEFLTLLELIDNVQRLGLGYRFESDIRRALDRFVSSGGFDAVTKTSLHATALSFRLLRQHGFEVSQEAFSGFKDQNGNFLENLKEDIKAILSLYEASFLALEGENILDEAKVFAISHLKELSEEKIGKDLAEQVNHALELPLHRRTQRLEAVLSIEAYRKKEDADQVLLELAILDYNMIQSVYQRDLRETSRWWRRVGLATKLHFARDRLIESFYWAVGVAFEPQYSDCRNSVAKMFSFVTIIDDIYDVYGTLDELELFTNAVERWDVNAIDDLPDYMKLCFLALYNTINEIAYDNLKEKGENILPYLTKAWADLCNAFLQEAKWLYNKSTPTFDDYFGNAWKSSSGPLQLVFAYFAVVQNIKKEEIENLQKYHDIISRPSHIFRLCNDLASASAEIARGETANSVSCYMRTKGISEELATESVMNLIDETWKKMNKEKLGGSLFAKPFVETAINLARQSHCTYHNGDAHTSPDELTRKRVLSVITEPILPFER |  |  | two times higher | higher | higher

— patent US20140235502A1, “METHOD FOR SCREENING AND QUANTIFYING ISOPRENE BIOSYNTHESIS ENZYME ACTIVITY” (Institute of Bioscience and Biotechnology, priority 2013, published 2014)
